Results taken from patent US20170112866A1, “ANTI-TUMOR AGENT CONTAINING TAXANE COMPOUND, AND ANTI-TUMOR EFFECT ENHANCER” (Taiho Pharmaceutical Company Limited, priority 2014, published 2017).

Legend:
[1] = mouse, in vivo
Procedure: (§1) A human gastric cancer cell line (SC-2) was transplanted to the right chest of 5 to 6-week-old BALB/cA Jcl-nu mice. After the tumor transplantation, the long diameter (mm) and the short diameter (mm) of the tumor were measured, and the tumor volume (TV) was calculated. […] Paclitaxel was administered at doses of 10, 20, and 30 mg/kg/day on Days 1 and 8.

[2] = tested on: human gastric cancer cell line (SC-2); assay: Anti-tumor effect on SC-2 transplanted to nude mice (RTV, IR); type: in vivo; conditions: Day 29, tail vein, Day 1 and Day 8
Procedure: The FTD•TPI combination drug (a mixture of FTD and TPI at a molar ratio of 1:0.5) was prepared for administration at a dose of 150 mg/kg/day in terms of FTD. Paclitaxel (TXL, Wako Pure Chemical Industries, Ltd.) was prepared for administration at doses of 5 and 20 mg/kg/day. The FTD•TPI combination drug was orally administered on Days 1 to 14 consecutively, and paclitaxel was administered through the tail vein on Day 1 and Day 8. In the combination administration groups, the doses and administration schedules of the FTD•TPI combination drug and paclitaxel were the same as those of the corresponding monotherapy groups.
As an index of the anti-tumor effect, the TVs on Days 3, 7, 12, 15, 19, 22, 26, and 29 were calculated in each group. In accordance with the following equation, the relative tumor volume (RTV) to that on Day 0 was calculated and compared with the RTV of the untreated group (control).
TV (mm^3)=(long diameter×short diameter^2)/2
RTV=(TV on Day 29)/(TV on Day 0)
The RTVs were plotted on the indicated measurement days, and RTV changes over days in the control group, the FTD•TPI combination drug administration group, the paclitaxel administration group, and the combination administration group of the FTD•TPI combination drug and paclitaxel were compared.
The tumor growth inhibition rate (IR) on Day 29 on the basis of RTV values was calculated in accordance with the following equation.
IR (%)=[1−(mean RTV value of treated group)/(mean RTV value of control group)]×100

[3] = Paclitaxel dose finding in SC-2-bearing mice (Reference Example 2); conditions: doses 10, 20, 30 mg/kg/day on Days 1 and 8 tested
Procedure: as §1

In the case of `CC(=O)O[C@H]1C(=O)[C@@]2(C)[C@H]([C@H](OC(=O)c3ccccc3)[C@]3(O)C[C@H](OC(=O)[C@H](O)[C@@H](NC(=O)c4ccccc4)c4ccccc4)C(C)=C1C3(C)C)[C@]1(OC(C)=O)CO[C@@H]1C[C@@H]2O` [Paclitaxel (TXL), (−)-(1S,2S,3R,4S,5R,7S,8S,10R,13S)-4,10-diacetoxy-2-benzoyloxy-5,20-epoxy-1,7-dihydroxy-9-oxotax-11-en-13-yl(2R,3S)-3-benzoylamino-2-hydroxy-3-phenylpropionate], the mice deceased [1] is reported as “four of the six mice deceased”, the “IR (tumor growth inhibition rate)” value ([2]; paclitaxel 5 mg/kg/day) is reported as 27.1% and the “RTV (mean ± SD)” value ([2]; paclitaxel 5 mg/kg/day) is reported as 44.97 ± 1.78. The “IR (tumor growth inhibition rate)” value ([2]; paclitaxel 20 mg/kg/day) was 83.6%, the “RTV (mean ± SD)” value ([2]; paclitaxel 20 mg/kg/day) was 10.13 ± 2.94 and the “recommended dose for mice” value [3] was 20 mg/kg/day.
